# Legend:
# Assay type in all cases: cell-based
# MLE-12 = experiment: Cell death protection, LDH release after RSL3; settings: 24 hours
# Experimental: (§1) To confirm the protective effect on cardiac cells, adrenal medulla cells, renal fibroblasts, retinal epithelial cells, lung epithelial cells, renal proximal tubule epithelial cells, hippocampal neurons, and fibroblasts, 4×10^3 to 1.2×10^4 cells of each cell type were dispensed into 96-well plates and cultured for 18 to 24 hours. Each well was treated with the example compound, which was diluted so that the final concentration became 0.001, 0.003, 0.01, 0.03, 0.1, 0.3, 1, 3, and 10 μM, and culture was performed for 15 to 20 minutes. […] To confirm the cell protecting effect of the example compounds, a cytotoxicity LDH assay kit [Dojindo; CK12] was used to measure the level of extracellular secretion of lactate dehydrogenase (LDH). Briefly, at the time point when the 24-hour treatment of each cell type with RSL3 ended, 70 μL of each supernatant from cell culture medium was taken and transferred to a new 96-well plate. After adding 70 μL/well (the same amount as the sample) of the assay buffer included in the kit, the resulting mixture was wrapped with foil and allowed to react at room temperature for 15 to 20 minutes. After observing the color change of the sample, 35 μL/well of a stop solution was added, and the absorbance value at 490 nm was measured using an iD3 spectrophotometer to calculate the EC50 value.
# (§2) Table 3. Effect of protecting cardiac cells, adrenal medulla cells, renal fibroblasts, retinal epithelial cells, lung epithelial cells, renal proximal tubule epithelial cells, hippocampal neurons, and fibroblasts against cell death induced by RSL3.
# ARPE-19 = experiment: Cell death protection, LDH release after RSL3; settings: ARPE-19, RSL3 0.3 μM, 24 hours
# Experimental: as §1, §2
# HT-22 = experiment: Cell death protection, LDH release after RSL3; settings: HT-22, RSL3 0.3 μM, 24 hours
# Experimental: as §1, §2
# NIH/3T3 = experiment: Cell death protection, LDH release after RSL3; settings: 24 hours
# Experimental: as §1, §2
# HK-2 = experiment: Cell death protection, LDH release after RSL3; settings: HK-2, RSL3 0.3 μM, 24 hours
# Experimental: as §1, §2
# NRK-49F = experiment: Cell death protection, LDH release after RSL3; settings: RSL3 3 μM, 24 hours
# Experimental: as §1, §2
# PC-12 = experiment: Cell death protection, LDH release after RSL3; settings: PC-12, RSL3 0.3 μM, 24 hours
# Experimental: as §1, §2
# H9C2 = experiment: Cell death protection, LDH release after RSL3; settings: H9C2, RSL3 0.5 μM, 24 hours
# Experimental: as §1, §2
# MLE-12 cells [1] = experiment: Mitochondrial ROS (MitoSOX) after RSL3; settings: MLE-12, 1 μM RSL3, 2 hours
# Experimental: To confirm the protective effect against mitochondrial reactive oxygen species in lung epithelial cells, 2×10^5 MLE-12 cells were dispensed into each well of a 12-well plate and cultured for 18 to 24 hours. Each well was treated with Example Compound 1 and ferrostatin-1, which were diluted so that their final concentration became 0.01, 0.1, 1, and 10 μM, and culture was performed for 15 minutes. Afterwards, the cells were treated so that the final concentration of RSL3 became 1 μM, and cultured for 2 hours. To confirm the inhibitory effect against mitochondrial reactive oxygen species, MitoSOX™ mitochondrial superoxide indicators (mitochondrial oxidative stress indicator) (MitoSOX) [Invitrogen™; C6827] was used. According to the manufacturer's experimental method, MitoSOX was diluted in the cell culture medium so that the final concentration became 5 μM, and the cells were treated therewith and allowed to react for 30 minutes to perform fluorescent staining. The MLE-12 cells fluorescently stained with MitoSOX were detached from the 12-well plate using 0.25% Trypsin-EDTA and transferred to a microtube, and the fluorescence (excitation/absorption ˜396 nm/610 nm) was measured using BD FACSLyric™ to calculate the rate of change compared to the control group (RSL3 untreated group).
# MLE-12 cells [2] = experiment: Cytosolic lipid ROS (BODIPY 581/591 C11) after RSL3, Experimental Example 3-1; settings: MLE-12, 1 μM RSL3, 2 hours; tested 0.01-10 μM
# Experimental: Experimental Example 3-1: To confirm the protective effect against cytosolic lipid reactive oxygen species in lung epithelial cells, 2×10^5 MLE-12 cells were dispensed into each well of a 12-well plate and cultured for 18 to 24 hours. Each well was treated with Example Compound 1 and ferrostatin-1, which were diluted so that their final concentration became 0.01, 0.1, 1, and 10 μM, and culture was performed for 15 minutes. Afterwards, the cells were treated so that the final concentration of RSL3 became 1 μM, and cultured for 2 hours. To confirm the inhibitory effect against cytosolic lipid reactive oxygen species, BODIPY™ 581/591 C11 (lipid peroxidation sensor) [Invitrogen™; D3861] was used. According to the manufacturer's experimental method, BODIPY™ 581/591 C11 was diluted in the cell culture medium so that the final concentration became 5 μM, and the cells were treated therewith and allowed to react for 30 minutes to perform fluorescent staining. The MLE-12 cells fluorescently stained with BODIPY™ 581/591 C11 were detached from the 12-well plate using 0.25% Trypsin-EDTA and transferred to a microtube, and the fluorescence (excitation/absorption 500 to 650 nm/510 to 665 nm) was measured using BD FACSLyric™ to calculate the rate of change compared to the control group.
# MLE-12 cells [3] = experiment: Cytosolic iron ion accumulation (FerroOrange, flow cytometry) after RSL3; settings: MLE-12, 1 μM RSL3, 8 hours
# Experimental: To confirm the inhibitory effect against cytosolic iron ion accumulation in lung epithelial cells, 2×10^5 MLE-12 cells were dispensed into each well of a 12-well plate and cultured for 18 to 24 hours. Each well was treated with Example Compound 1 and ferrostatin-1, which were diluted so that their final concentration became 0.01, 0.1, 1, and 10 μM, and culture was performed for 15 minutes. Afterwards, the cells were treated so that the final concentration of RSL3 became 1 μM, and cultured for 8 hours. To confirm the inhibitory effect against cytosolic iron ion accumulation, FerroOrange [DOJINDO; F374] was used. According to the manufacturer's experimental method, FerroOrange was diluted in the cell culture medium so that the final concentration became 1 μM, and the cells were treated therewith and allowed to react for 30 minutes to perform fluorescent staining. The MLE-12 cells fluorescently stained with FerroOrange were detached from the 12-well plate using 0.25% Trypsin-EDTA and transferred to a microtube, and the fluorescence (excitation/absorption 580 nm/543 nm) was measured using BD FACSLyric™ to calculate the rate of change compared to the control group (RSL3 untreated group).
SMILES,"EC50 (MLE-12; MLE12, MLE-12, RSL3 1 μM)",EC50 (ARPE-19; Homo sapiens),EC50 (HT-22; Mus musculus),"EC50 (NIH/3T3; Mus musculus, NIH3T3, NIH/3T3, RSL3 3 μM)",EC50 (HK-2; Homo sapiens),EC50 (NRK-49F; Rattus norvegicus),EC50 (PC-12; Rattus norvegicus),EC50 (H9C2; Rattus norvegicus),concentration at which mitochondrial reactive oxygen species were significantly decreased (MLE-12 cells [1]),concentration at which cytosolic lipid reactive oxygen species were significantly decreased (MLE-12 cells [2]),concentration at which cytosolic iron ion accumulation was significantly decreased (MLE-12 cells [3]),"EC50 (MLE-12; MLE-12, RSL3 1 μM)",EC50 (ARPE-19),EC50 (HT-22),"EC50 (NIH/3T3; NIH/3T3, RSL3 3 μM)",EC50 (HK-2),EC50 (NRK-49F),EC50 (PC-12),EC50 (H9C2)
"O=S1(=O)CCN(Cc2cc(NC3CCOCC3)c3[nH]c(-c4ccccc4)cc3c2)CC1 [Example 1, 5-[(1,1-dioxido-4-thiomorpholinyl)methyl]-2-phenyl-N-(tetrahydro-2H-pyran-4-yl)-1H-indole-7-amine]",≤ 0.03 µM,≤ 0.03 µM,≤ 0.03 µM,0.03 to 0.1 µM,≤ 0.03 µM,≤ 0.03 µM,0.03 to 0.1 µM,0.03 to 0.1 µM,0.1 µM,0.1 µM,0.1 µM,–,–,–,–,–,–,–,–
"CCOC(=O)c1ccc(NC2CCCCC2)c(N)c1 [Fer-1, ferrostatin-1, reference compound]",–,–,–,–,–,–,–,–,0.1 µM,0.1 µM,1 µM,0.03 to 0.1 µM,0.03 to 0.1 µM,0.03 to 0.1 µM,0.03 to 0.1 µM,0.03 to 0.1 µM,0.03 to 0.1 µM,0.03 to 0.1 µM,0.03 to 0.1 µM

# — patent publication US20240269145A1, “USE OF INDOLE COMPOUND AS INHIBITORS OF FERROPTOSIS” (MITOIMMUNE THERAPEUTICS INC., priority 2023, published 2024)
